Data published in patent publication US20120041012A1, “SUBSTITUTED SPIROCYCLIC AMINES USEFUL AS ANTIDIABETIC COMPOUNDS” (priority 2009, published 2012).
pIC50, pKi: −log10 of the molar value.

How the values were obtained:
SSTR5 [1] = target: T1, SSTR5 (Homo sapiens, UniProt P35346); experiment: SSTR5 receptor-ligand binding assay, CHO-K1 cell membranes, 125I-SRIF radioligand; set-up: expressed in transfected cells; host or cells: CHO-K1 (membranes); settings: Table 2
Experimental: The receptor-ligand binding assays of all 5 subtype of SSTRs were performed with membranes isolated from Chinese hamster ovary (CHO)-K1 cells stably expressing the cloned human somatostatin receptors in 96-well format as previous reported.
The stable cell lines for SSTR1-SSTR5 were developed by stably transfecting with DNA for all five SSTRs using Lipofectamine. […] The assay buffer consisted of 50 mM TrisHCl (pH 7.8) with 1 mM EGTA, 5 mM MgCl2, leupeptin (10 μg/mL), pepstatin (10 μg/mL), bacitracin (200 μg/mL), and aprotinin (0.5 μg/mL). CHO-K1 cell membranes, radiolabeled somatostatin, and unlabeled test compounds were resuspended or diluted in this assay buffer. Unlabeled test compounds were examined over a range of concentrations from 0.01 nM to 10,000 nM.

SSTR5 [2] = target: T1, SSTR5; experiment: Functional assay of SSTR5 mediated cyclic AMP production in SSTR5 expressing CHO cells; assay type: cell-based, human or mouse; settings: Table 2; FSK plus SS-28; read-out: SSTR5 (cAMP) IC50

T1 sequence (P35346 whole entry): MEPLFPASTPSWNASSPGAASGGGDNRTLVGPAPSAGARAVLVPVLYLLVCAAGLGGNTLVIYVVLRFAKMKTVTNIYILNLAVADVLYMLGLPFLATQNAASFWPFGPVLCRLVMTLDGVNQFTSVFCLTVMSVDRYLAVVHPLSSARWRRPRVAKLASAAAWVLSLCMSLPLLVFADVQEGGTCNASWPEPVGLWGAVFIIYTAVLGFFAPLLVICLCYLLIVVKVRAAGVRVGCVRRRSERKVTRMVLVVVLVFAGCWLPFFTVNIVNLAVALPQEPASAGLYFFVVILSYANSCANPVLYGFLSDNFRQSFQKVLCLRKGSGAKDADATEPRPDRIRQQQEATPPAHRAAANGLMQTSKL

Compound | pKi (SSTR5 [1]) | pIC50 (SSTR5 [2])
CCOc1ccc(-c2ccc(F)c(F)c2F)c(CN2CCC3(CC2)CC(=O)N(c2ccc(C(=O)O)cc2)C3)c1 [Example 97] | 8.12 | 8.74
CCOc1cc(CN2CCC3(CC2)CC(=O)N(CCCC(=O)O)C3)cc(OCC)c1-c1ccc(F)cc1 [Example 23] | 7.28 | 7.36
CCOc1cc(CN2CCC3(CC2)CC(=O)N(CC(=O)O)C3)cc(OCC)c1-c1ccc(F)cc1 [Example 8, {8-[(2,6-diethoxy-4′-fluorobiphenyl-4-yl)methyl]-3-oxo-2,8-diazaspiro[4.5]dec-2-yl}acetic acid trifluoromethyl acetate] | 6.72 | 6.80
CCOc1cc(CN2CCC3(CC2)CC(=O)N(CCO)C3)cc(OCC)c1-c1ccc(F)cc1 [Example 9, 8-[(2,6-diethoxy-4′-fluorobiphenyl-4-yl)methyl]-2-(2-hydroxyethyl)-2,8-diazaspiro[4.5]decan-3-one trifluoromethyl acetate] | 7.15 | 6.80
CCOc1cc(CN2CCC3(CC2)CC(=O)N(c2cncc(C(=O)O)c2)C3)cc(OCC)c1-c1ccc(F)cc1 [Example 57] | 8.00 | 8.44
CCOc1cc(CN2CCC3(CC2)CC(=O)N(c2ccc(C(=O)O)cc2)C3)cc(OCC)c1OCC [Example 148] | 6.80 | 7.09
CCOc1cc(CN2CCC3(CC2)CC(=O)N(c2ccc(-c4n[nH]c(=O)o4)cc2)C3)cc(OCC)c1-c1ccc(F)cc1 [Example 49] | 8.05 | 7.47
CCOc1cc(CN2CCC3(CC2)CC(=O)N(c2ccc(C(=O)O)cc2)C3)ccc1Cl [Example 159] | 6.89 | 7.21
CC(C)Oc1cc(CN2CCC3(CC2)CC(=O)N(c2ccc(C(=O)O)cc2)C3)cc(OC(C)C)c1C#N [Example 152] | 7.85 | 7.82
CCOc1cc(CN2CCC3(CC2)CC(=O)N(c2ccc(C(N)=O)cc2)C3)cc(OCC)c1-c1ccc(F)cc1 [Example 3, 4-{8-[(2,6-diethoxy-4′-fluorobiphenyl-4-yl)methyl]-3-oxo-2,8-diazaspiro[4.5]dec-2-yl}benzamide trifluoromethyl acetate] | 8.06 | 7.48
O=C(O)c1ccc(N2CC3(CCN(Cc4cc(O)c(-c5ccc(F)cc5)c(O)c4)CC3)CC2=O)cc1 [Example 162] | 5.80 | < 6.00
O=C(O)c1ccc(N2CC3(CCN(Cc4cc(OC5CC5)c(-c5ncc(F)cc5F)c(OC5CC5)c4)CC3)CC2=O)cc1 [Example 66] | 8.35 | 8.74
CCOc1cc(CN2CCC3(CC2)CC(=O)N(c2ccc(C(=O)O)cc2)C3)cc(OCC)c1Br [Example 5] | 8.12 | 8.41
CCOc1cc(CN2CCC3(CC2)CNC(=O)C3)cc(OCC)c1-c1ccc(F)cc1 [Example 1, 8-[(2,6-diethoxy-4′-fluorobiphenyl-4-yl)methyl]-2,8-diazaspiro[4.5]decan-3-one] | 7.68 | 7.28
CCOc1cc(CN2CCC3(CC2)CC(=O)N(Cc2cccc(C(=O)O)c2)C3)cc(OCC)c1-c1ccc(F)cc1 [Example 52] | 7.17 | 7.68
CCOc1cc(CN2CCC3(CC2)CC(=O)N(c2ccc(C(=O)O)cc2)C3)cc(-c2ccc(F)cc2F)c1 [Example 107] | 7.40 | 7.44
CCOc1cc(CN2CCC3(CC2)CC(=O)N(c2cccc(C(N)=O)c2)C3)cc(OCC)c1-c1ccc(F)cc1 [Example 60] | 8.39 | 7.80
CCOc1cc(CN2CCC3(CC2)CC(=O)N(c2ccc(C(=O)O)cc2)C3)cc(OCC)c1OCC(F)(F)F [Example 153] | 7.26 | 7.38
CCOc1ccc(-c2ccc(F)cc2F)c(CN2CCC3(CC2)CC(=O)N(c2ccc(C(=O)O)cc2)C3)c1 [Example 94] | 7.96 | 8.14
CCOc1cc(CN2CCC3(CC2)CC(=O)N(c2ccc(C(=O)O)nc2)C3)cc(OCC)c1-c1ccc(F)cc1 [Example 85] | 8.28 | 8.21
CCOc1cc(CN2CCC3(CC2)CC(=O)N(c2ccc(C(=O)O)cn2)C3)cc(OCC)c1-c1ccc(F)cc1 [Example 84] | 8.11 | 8.33
CCOc1cc(CN2CCC3(CC2)CC(=O)N(c2nccc(O)n2)C3)cc(OCC)c1-c1ccc(F)cc1 [Example 87] | 6.47 | 7.19

Further compounds by rising pKi (SSTR5 [1]), results first:

pKi (SSTR5 [1]) | pIC50 (SSTR5 [2]) | Compound
8.35 | 8.44 | CCOc1cc(CN2CCC3(CC2)CC(=O)N(c2ccc(C(=O)O)cc2)C3)cc(OCC)c1-c1ncc(F)cc1F [Example 65]
8.41 | 8.07 | CCOc1cc(CN2CCC3(CC2)CC(=O)N(Cc2ccc(F)cc2)C3)cc(OCC)c1-c1ccc(F)cc1 [Example 53]
8.43 | 8.10 | CCOc1cc(CN2CCC3(CC2)CC(=O)N(c2cncc(O)c2)C3)cc(OCC)c1-c1ccc(F)cc1 [Example 81]
8.44 | 8.33 | CCOc1cc(CN2CCC3(CC2)CC(=O)N(c2cccc(-c4nnn[nH]4)c2)C3)cc(OCC)c1-c1ccc(F)cc1 [Example 59]
8.51 | 8.51 | CCOc1cc(CN2CCC3(CC2)CC(=O)N(c2ccc(O)nc2)C3)cc(OCC)c1-c1ccc(F)cc1 [Example 74]
8.70 | 7.89 | CCOc1cc(CN2CCC3(CC2)CC(=O)N(c2ccccc2S(C)(=O)=O)C3)cc(OCC)c1-c1ccc(F)cc1 [Example 61]
8.81 | 9.55 | CCOc1cc(CN2CCC3(CC2)CC(=O)N(c2ccc(C(=O)O)cc2)C3)cc(OCC)c1-c1cc(F)ccc1F [Example 44]
9.00 | 8.74 | CCOc1cc(CN2CCC3(CC2)CC(=O)N(c2ccc(-c4noc(=O)[nH]4)cc2)C3)cc(OCC)c1-c1ccc(F)cc1 [Example 6, 8-[(2,6-diethoxy-4′-fluorobiphenyl-4-yl)methyl]-2-[4-(5-oxo-4,5-dihydro-1,2,4-oxadiazol-3-yl)phenyl]-2,8-diazaspiro[4.5]decan-3-one]
9.07 | 9.21 | CCOc1cc(CN2CCC3(CC2)CC(=O)N(c2ccc(C(=O)O)cc2)C3)cc(OCC)c1-c1ccc(C(F)(F)F)cc1 [Example 35]
9.08 | 8.82 | CCOc1cc(CN2CCC3(CC2)CC(=O)N(c2ccc(C(=O)O)cc2)C3)cc(OCC)c1-c1ccc(F)c(F)c1F [Example 45]
9.12 | 8.89 | CCOc1cc(CN2CCC3(CC2)CC(=O)N(c2ccc(-c4nnn[nH]4)cc2)C3)cc(OCC)c1-c1ccc(F)cc1 [Example 7, 8-[(2,6-diethoxy-4′-fluorobiphenyl-4-yl)methyl]-2-[4-(1-H-tetrazol-5-yl)phenyl]-2,8-diazaspiro[4.5]decan-3-one trifluoromethyl acetate]
9.31 | 9.22 | CCOc1cc(CN2CCC3(CC2)CC(=O)N(c2ccc(C(=O)O)cc2)C3)cc(OCC)c1-c1ccc(OC(F)(F)F)cc1 [Example 37]
